Results from patent US9745328B2, “Flap modulators” (JANSSEN PHARMACEUTICA NV, priority 2013, dated 2017).
Counter-ions that a name gives are not always drawn.

Target: human FLAP (Homo sapiens (Human), UniProt P20292)
Test: FLAP binding assay (HTRF format)
Conditions: human FLAP wild type, Table 6 (additional runs)
How it was run: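 Reported data take the mean of two different plates carrying duplicate samples and use the HTRF ratio as the measured signal.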

Chain of human FLAP (P20292 whole entry): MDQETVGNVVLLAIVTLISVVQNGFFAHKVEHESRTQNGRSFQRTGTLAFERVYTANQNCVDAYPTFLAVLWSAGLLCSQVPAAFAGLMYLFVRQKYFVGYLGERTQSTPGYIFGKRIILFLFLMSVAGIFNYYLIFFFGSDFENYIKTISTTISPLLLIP

| SMILES | Ki |
| --- | --- |
| Nc1nc(-c2ccc(-c3ccccc3S(=O)(=O)N3CCCC3)cc2F)cs1 [Example 579, 4-[3-Fluoro-2′-(pyrrolidin-1-ylsulfonyl)biphenyl-4-yl]-1,3-thiazol-2-amine] | 0.0951 µM |
| CC(C)(C)NS(=O)(=O)c1ccccc1-c1ccc(-c2ccc3[nH]nc(N)c3c2)c(F)c1 [Example 597, 4′-(3-Amino-1H-indazol-5-yl)-N-tert-butyl-3′-fluorobiphenyl-2-sulfonamide] | ~2.5 µM |
| Nc1cnc(Oc2ccccc2-c2ccc(-c3cnc(N)nc3)c(F)c2)nc1 [Example 615, 5-{2′-[(5-Aminopyrimidin-2-yl)oxy]-3-fluorobiphenyl-4-yl}pyrimidin-2-amine] | 0.0509 µM |
| Cc1cc(N)nc(Oc2ccccc2-c2ccc(-c3cnc(N)nc3)c(F)c2)n1 [Example 617, 5-{2′-[(4-Amino-6-methylpyrimidin-2-yl)oxy]-3-fluorobiphenyl-4-yl}pyrimidin-2-amine] | 0.162 µM |
| Nc1ncc(-c2ccc(-c3ccccc3Oc3cccc(C(F)(F)F)n3)cc2F)cn1 [Example 624, 5-(3-Fluoro-2′-{[6-(trifluoromethyl)pyridin-2-yl]oxy}biphenyl-4-yl)pyrimidin-2-amine] | 0.0327 µM |
| Nc1cnc(-c2ccc(-c3cccnc3OC3CCNCC3)cc2F)cn1 [Example 645] | > 10 µM |
| Nc1ncc(-c2ccc(-c3cccnc3OC3CCNCC3)cc2F)cn1 [Example 646, 5-{2-Fluoro-4-[2-(piperidin-4-yloxy)pyridin-3-yl]phenyl}pyrimidin-2-amine] | > 10 µM |
| Nc1cnc(-c2ccc(-c3cccnc3OC3CCS(=O)(=O)CC3)cc2F)cn1 [Example 647, 5-(4-{2-[(1,1-Dioxidotetrahydro-2H-thiopyran4-yl)oxy]pyridin-3-yl}-2-fluorophenyl)pyrazin-2-amine] | 0.227 µM |
| Nc1ncc(-c2ccc(-c3cccnc3OC3CCS(=O)(=O)CC3)cc2F)cn1 [Example 648, 5-(4-{2-[(1,1-Dioxidotetranydro-2H-thiopyran-4-yl)oxy]pyridin-3-yl}-2-fluorophenyl)pyrimidin-2-amine] | 0.834 µM |
| C[C@H](NS(=O)(=O)c1ccccc1-c1ccc(-c2cnc(N)nc2)nc1)C(F)(F)F [Example 685, 2-[6-(2-Aminopyrimidin-5-yl)pyridin-3-yl]-N-[(1S)-2,2,2-trifluoro-1-methylethyl]benzenesulfonamide trifluoroacetic acid salt] | 0.0592 µM |
| Nc1cnc(-c2ccc(-c3ccc(Br)cc3F)cc2F)cn1 [Example 696, 5-(4′-Bromo-2′,3-difluoroblphenyl-4-yl)pyrazin-2-amine] | 0.141 µM |
| N#Cc1ccccc1-c1ccc(-c2cnc(N)cn2)c(F)c1 [Example 701, 4′-(5-Aminopyrazin-2-yl)-3′-fluorobiphenyl-2-carbonitrile] | 0.132 µM |
| C[C@H]1COCCN1C(=O)c1ccccc1-c1ccc(-c2cnc(N)cn2)c(F)c1 [Example 774, 5-(3-Fluoro-2′-{[(3S)-3-methylmorpholin-4-yl]carbonyl}biphenyl-4-yl)pyrazin-2-amine] | 1.3 µM |
| C[C@H]1CN(C(=O)c2ccccc2-c2ccc(-c3cnc(N)cn3)c(F)c2)CCO1 [Example 776, 5-(3-Fluoro-2′-{[(2S)-2-methylmorpholin-4-yl]carbonyl}biphenyl-4-yl)pyrazin-2-amine] | 0.15 µM |
| C[C@H]1CN(C(=O)c2ccccc2-c2ccc(-c3cnc(N)nc3)c(F)c2)CCO1 [Example 777, 5-(3-Fluoro-2′-{[(2S)-2-methylmorpholin-4-yl]carbonyl}biphenyl-4-yl)pyrimidin-2-amine] | 1.62 µM |
| Nc1ncc(-c2ccc(-c3cccnc3S(=O)(=O)C3CCS(=O)(=O)CC3)cc2F)cn1 [Example 819, 4-((3-(4-(2-aminopyrimidin-5-yl)-3-fluorophenyl)pyridine-2-yl)sulfonyl)tetrahydro-2H-thiopyran 1,1-dioxide] | 0.0743 µM |

Continued, values first:

| Ki | SMILES |
| --- | --- |
| 0.0304 µM | C[C@@H]1COCCN1C(=O)c1ccccc1-c1ccc(-c2cnc(N)cn2)c(F)c1 [Example 775, 5-(3-Fluoro-2′-{[(3R)-3-methylmorpholin-4-yl]carbonyl}biphenyyl-4-yl)pyrazin-2-amine] |
| 0.0202 µM | N#Cc1cc(Oc2ccccc2-c2ccc(-c3cnc(N)nc3)c(F)c2)ccn1 [Example 538, 4-{[4′-(2-Aminopyrimidin-5-yl)-3′-fluorobiphenyl-2-yl]oxy}pyridine-2-carbonitrile] |
| 0.0193 µM | COc1cc(C(F)(F)F)ccc1-c1ccc(-c2cnc(N)cn2)c(F)c1 [Example 553, 5-[3-fluoro-2′-methoxy-4′-(trifluoromethyl)biphenyl-4-yl]pyrazin-2-amine] |
| 0.0164 µM | Cc1cc(N)nc(Oc2ccccc2-c2ccc(-c3cnc(N)cn3)c(F)c2)n1 [Example 616, 2-{[4′-(5-Aminopyrazin-2-yl)-3′-fluorobiphenyl-2-yl]oxy}-6-methylpyrimidin-4-amine] |
| 0.0139 µM | CC(C)(C)NS(=O)(=O)c1ccccc1-c1ccc(-c2cnc(N)cn2)cc1F [Example 574, 4′-(5-Aminopyrazin-2-yl)-N-tert-butyl-2′-fluorobiphenyl-sultonamide] |
| 0.0098 µM | Nc1cnc(Oc2ccccc2-c2ccc(-c3cnc(N)cn3)c(F)c2)nc1 [Example 614, 2-{[4′-(5-Aminopyrazin-2-yl)-3′-fluorobiphenyl-2-yl]oxy}pyrimidin-5-amine] |
| 0.0085 µM | N#Cc1cccnc1COc1ccccc1-c1ccc(-c2cnc(N)cn2)c(F)c1 [Example 531, 2-({[4′-(5-Aminopyrazin-2-yl)-3′-fluorobiphenyl-2-yl]oxy}methyl)pyridine-3-carbonitrile] |
| 0.0055 µM | Nc1ncc(-c2ccc(-c3ccc(C(F)(F)F)cc3Oc3ncccn3)cc2F)cn1 [Example 552, 5-[3-Fluoro-2′-(pyrimidin-2-yloxy)-4′-(trifluoromethyl)biphenyl-4-yl]pyrimidin-2-amine] |
| 0.0045 µM | Nc1cnc(-c2ccc(-c3ccccc3Oc3ccnc(N)n3)cc2F)cn1 [Example 533, 4-{[4′-(5-Aminopyrazin-2-yl)-3′-fluorobiphenyl-2-yl]oxy}pyrimidin-2-amine] |
| 0.0044 µM | Nc1cc(Oc2cc(C(F)(F)F)ccc2-c2ccc(-c3cnc(N)nc3)c(F)c2)ncn1 [Example 561, 5-{2′-[(6-Aminopyrimidin-4-yl)oxy]-3-fluoro-4′-(trifluoromethyl)biphenyl-4-yl}pyrimidin-2-amine] |
| 0.0017 µM | COc1cnc(Oc2ccccc2-c2ccc(-c3cnc(N)nc3)c(F)c2)nc1 [Example 550, 5-{3-Fluoro-2′-[(5-methoxypyrimidin-2-yl)oxy]biphenyl-4-yl}pyrimidin-2-amine] |
| 0.0017 µM | CC(C)(C)NS(=O)(=O)c1ccccc1-c1ccc(-c2cnc(N)cn2)cc1 [Example 571, 4′-(5-Aminopyrazin-2-yl)-N-tert-butylbiphenyl-2-sulfonamide] |
| 0.0016 µM | Nc1cnc(-c2ccc(-c3ccccc3Oc3cc(N4CCC4)ncn3)cc2F)cn1 [Example 539, 5-{2′-[(6-Azetidin-1-ylpyrimidin-4-yl)oxy]-3-fluorobiphenyl-4-yl}pyrazin-2-amine] |
| 0.0016 µM | Nc1cnc(-c2ccc(-c3ccc(C(F)(F)F)cc3Oc3ccnc(N)n3)cc2F)cn1 [Example 555, 4-{[4′-(5-Aminopyrazin-2-yl)-3′-fluoro-4-(trifluoromethyl)biphenyl-2-yl]oxy}pyrimidin-2-amine] |
| 0.0015 µM | Nc1ccnc(Oc2cc(C(F)(F)F)ccc2-c2ccc(-c3cnc(N)nc3)c(F)c2)n1 [Example 559, 5-{2′-[(4-Aminopyrimidin-2-yl)oxy]-3-fluoro-4′-(trifluoromethyl)biphenyl-4-yl}pyrimidin-2-amine] |
| 0.001 µM | CC(C)(C)NS(=O)(=O)c1ccccc1-c1cnc(-c2cnc(N)nc2)c(F)c1 [Example 675, 2-[6-(2-Aminopyrimidin-5-yl)-5-fluoropyridin-3-yl]-N-tert-butylbenzenesulfonamide] |
| 0.0007 µM | Nc1cnc(-c2ccc(-c3ccc(C(F)(F)F)cc3Oc3nccc(N)n3)cc2F)cn1 [Example 556, 2-{[4′-(5-Aminopyrazin-2-yl)-3′-fluoro-4-(trifluoromethyl)biphenyl-2-yl]oxy}pyrimidin-4-amine] |
| 0.0004 µM | Nc1cnc(-c2ccc(-c3ccc(C(F)(F)F)cc3Oc3ncccn3)cc2F)cn1 [Example 551, 5-[3-Fluoro-2′-(pyrimidin-2-yloxy)-4′-(trifluoromethyl)biphenyl-4-yl]pyrazin-2-amine] |

Same assay, conditions: human FLAP wild type, a calculated value of 0.000 indicates Ki less than 1 nM

| SMILES | Ki |
| --- | --- |
| Nc1cnc(-c2ccc(-c3ccc(C(F)(F)F)cc3Oc3ncccn3)cc2F)cn1 [Example 551, 5-[3-Fluoro-2′-(pyrimidin-2-yloxy)-4′-(trifluoromethyl)biphenyl-4-yl]pyrazin-2-amine] | < 0.001 µM |

Test system: leukotriene pathway in human whole blood (LTB4)
Test: Human whole blood assay (LTB4 levels after calcium ionophore A23187 stimulation)
Format: cell-based
Conditions: Homo sapiens, Table 6 (additional runs); human whole blood diluted 1:1, A23187 stimulation; read-out: Human Whole Blood LTB4 IC50 1:1
Protocol: The ability of the compounds of the present invention to treat a FLAP-mediated disease and/or disorder, or associated symptoms or complications thereof, was determined using the following procedures. Binding assay data represent the average value obtained from two different assay plates, with samples run in duplicate on each plate. Human whole blood assay data represent a single replicate on an assay plate using whole blood from at least one healthy donor.
An in vitro cellular assay was performed using human whole blood collected in heparin-containing tubes, which was used to test the ability of compounds to modulate the leukotriene pathway in human whole blood. The blood was diluted 1:1 in RPMI medium, pre-incubated for 15 min at 37° Celsius with test compounds at various concentrations, and then stimulated with calcium ionophore, A23187 (7 μg/mL), for 30 min at 37° Celsius. The samples were then centrifuged and plasma was removed. The plasma was diluted in assay buffer and LTB4 levels were measured using a commercial kit (Enzo Life Sciences). The concentration of each compound that was required for half-maximal inhibition (modulation) of recombinant enzyme activity (IC50) was calculated by a 4-parameter equation using the program GraphPad Prism (GraphPad software).

| SMILES | IC50 |
| --- | --- |
| C[C@@H](CO)NS(=O)(=O)c1ccccc1-c1ccc(-c2cnc(N)cn2)c(F)c1 [Example 25, (R)-4′-(5-Aminopyrazin-2-yl)-3′-fluoro-N-[(1R)-2-hydroxy-1-methylethyl]piphenyl-2-sulfonamicie] | 0.0263 µM |
| Nc1cnc(-c2ccc(-c3ccccc3S(=O)(=O)N3CC[C@@H](N)C3)cc2F)cn1 [Example 92, (R)-5-(2′-((3-aminopyrrolidin-1-yl)sulfonyl)-3-fluoro-[1,1′-biphenyl]-4-yl)pyrazin-2-amine] | 0.309 µM |
| C[C@H](O)CNS(=O)(=O)c1ccccc1-c1ccc(-c2cnc(N)nc2)c(F)c1 [Example 279, 4′-(2-Aminopyrimidin-5-yl)-3′-fluoro-N-[(2S)-2-hydroxypropyl]biphenyl-2-sulfonamide trifluoroacetic acid salt] | 0.118 µM |
